Several values for one entry are separate records, joined by “and”; a condition that tells them apart may be missing. Equal entries are not always repeated. Where two headings read alike, the source gives them in different places.
What was measured:
[1] = Plasma migalastat concentration in two Fabry patients with renal impairment (P1, P2; Example 3); type: in vivo, human; conditions: for concentration at 0 h: human, plasma, Fabry patient P1 (moderate renal impairment), Pre-dose (0 h)
Procedure: Migalastat levels can be measured via methods known in the art. […] Microcentrifuge tubes containing 100 μl of the tissue homogenate or 50 μl of plasma may then be spiked with 500 ng/mL 13C d2-AT1001 HCl internal standard (manufactured by MDS Pharma Services). A 600 μl volume of 5 mM HCl in 95/5 MeOH:H2O can then be added and the tubes vortexed for 2 minutes, followed by centrifugation at 21000×g for 10 minutes at room temperature. The supernatants may then be collected into a clean, 96-well plate, diluted with 5 mM HCl in dH2O and applied to a 96-well solid phase extraction (SPE) plate (Waters Corp., Milford Mass.). […] The liquid chromatography can be conducted using an ACN:water:formate binary mobile phase system (mobile phase A: 5 mM ammonium formate, 0.5% formic acid in 95:5 ACN:water; mobile phase B: 5 mM ammonium formate, 0.5% formic acid in 5:47.5:47.5 ACN:MeOH:water) with a flow rate of 0.7 mL/minute on an Halo HILIC column (150×4.6 mm, 2.7 μm) (Advanced Materials Technology, Inc.). MS/MS analysis may be carried out under APCi positive ion mode. The same procedure may be followed for migalastat determination in plasma except without homogenization. […] A 12-point calibration curve and quality control samples may be prepared. […] To derive approximate molar concentrations, one gram of tissue may be estimated as one mL of volume.
Thus, two Fabry patients with renal impairment were evaluated. One patient (P1) had moderate renal impairment, while the other patient (P2) had severe renal impairment. […] The comparison with the results from the FACETS study allows for comparison of PK in the Fabry population with mostly normal, but some mild and a few moderately impaired Fabry patients. None had severe renal impairment because these patients were excluded from the study.

[2] = eGFR (MDRD), IDMS traceable, in Fabry patients on migalastat; type: in vivo, human; design: eGFR(MDRD), IDMS Traceable: unit not given here
Procedure: An estimated GFR (eGFR) is calculated from serum creatinine using an isotope dilution mass spectrometry (IDMS) traceable equation. Two of the most commonly used equations for estimating glomerular filtration rate (GFR) from serum creatinine are the Chronic Kidney Disease Epidemiology Collaboration (CKD-EPI) equation and the Modification of Diet in Renal Disease (MDRD) Study equation. Both the MDRD Study and CKD-EPI equations include variables for age, gender, and race, which may allow providers to observe that CKD is present despite a serum creatinine concentration that appears to fall within or just above the normal reference interval. The following is the IDMS-traceable MDRD Study equation (for creatinine methods calibrated to an IDMS reference method): […]

[3] = Highest recorded migalastat exposure in a Fabry patient after a single dose of 450 mg; type: in vivo, human; conditions: single dose of 450 mg
Text: FIGS. 2A-D show the mean simulation plots for each regimen.

[4] = cited from earlier work; for Mean percent of the dose recovered in urine: single ascending dose (SAD) study
[5] = Earlier single and multiple ascending dose plasma and urine pharmacokinetic studies in healthy volunteers and Fabry patients; conditions: human, in vivo
[6] = Phase 1 single-dose pharmacokinetics and safety study of migalastat HCl in non-Fabry subjects with renal impairment (Example 1, AT1001-015); type: in vivo, human; conditions: for AUC0-∞: individual subjects, in ng·h/mL; for concentration at 96 h: read-out: C96 h, Mean; for Comparison to Example 1 Moderate Impairment (migalastat concentration): non-Fabry subjects with moderate renal impairment, in ng/mL (unit assumed); for Comparison to Example 1 Severe Impairment (migalastat concentration): non-Fabry subjects with severe renal impairment, (coefficient of variation)
Procedure: The eGFR estimated by the Cockcroft-Gault equation per the FDA Guidance for renal impairment studies.
Volunteers were enrolled into two cohorts stratified for renal function calculated using the Cockcroft-Gault equation for creatinine clearance (CLcr). Subjects were assigned to groups based on an estimated CLcr at screening as calculated using the Cockcroft-Gault equation.
Subjects were grouped according to degree of renal dysfunction: mild (CLcr ≥60 and <90 mL/min), moderate (CLcr ≥30 and <60 mL/min), or severe (CLcr ≥15 and <30 mL/min)

[7] = Fabry patient P1, moderate renal impairment
[8] = AT1001-015, Mild (CLcr ≥60-<90 mL/min), N 8
[9] = AT1001-015, Moderate (CLcr ≥30-<60 mL/min), N 8
[10] = AT1001-015, Normal (CLcr ≥90 mL/min), N 8
[11] = AT1001-015, Severe (CLcr ≥15-<30 mL/min), N 8
[12] = human, plasma, po, 150 mg, single oral 150 mg migalastat HCl, non-Fabry subjects, renal function group Mild (N = 8)
[13] = human, plasma, po, 150 mg, single oral 150 mg migalastat HCl, non-Fabry subjects, renal function group Moderate (N = 8)
[14] = human, plasma, po, 150 mg, single oral 150 mg migalastat HCl, non-Fabry subjects, renal function group Normal (N = 8)
[15] = human, plasma, po, 150 mg, single oral 150 mg migalastat HCl, non-Fabry subjects, renal function group Severe (N = 8)
[16] = single oral 150 mg migalastat HCl, non-Fabry subjects, renal function group Mild (N = 8)
[17] = single oral 150 mg migalastat HCl, non-Fabry subjects, renal function group Moderate (N = 8)
[18] = single oral 150 mg migalastat HCl, non-Fabry subjects, renal function group Normal (N = 8)

Structure (SMILES): OC[C@H]1NC[C@H](O)[C@@H](O)[C@H]1O [migalastat, (2R,3S,4R,55)-2-(hydroxymethyl) piperdine-3,4,5-triol]
- increase of C48h concentration over 6 months [1, 7]: 49%
- increase of Cmax over 6 months [1, 7]: 33%
- concentration at 0 h ([1]; Migalastat Conc 6 months later): 36.4 ng/mL
- concentration at 0 h ([1]; Migalastat Conc, first set): 19.9 ng/mL
- eGFR(MDRD), IDMS Traceable ([2]; Fabry patient P1, 18 Month Visit): 42
- eGFR(MDRD), IDMS Traceable ([2]; Fabry patient P1, 24 Month Visit): 37
- eGFR(MDRD), IDMS Traceable ([2]; Fabry patient P1, 34-Month Visit): 32
- eGFR ([2]; Fabry patient P3, Aug ′15): 32 mL/min/1.73 m^2
- eGFR ([2]; Fabry patient P3, Aug ′17): 19 mL/min/1.73 m^2
- eGFR(MDRD), IDMS Traceable ([2]; Fabry patient P3, August 2014, QOD): 37
- eGFR(MDRD), IDMS Traceable ([2]; Fabry patient P3, August 2017, Q4D): 19
- eGFR(MDRD), IDMS Traceable ([2]; Fabry patient P3, February 2014, QOD): 42
- eGFR(MDRD), IDMS Traceable ([2]; Fabry patient P3, February 2018, Q7D): 13
- eGFR(MDRD), IDMS Traceable ([2]; Fabry patient P3, January 2018, Q7D): 13
- eGFR(MDRD), IDMS Traceable ([2]; Fabry patient P3, June 2015, QOD): 32
- eGFR ([2]; Fabry patient P3, Mar ′11): 59 mL/min/1.73 m^2
- eGFR(MDRD), IDMS Traceable ([2]; Fabry patient P3, March 2011, QOD): 59
- eGFR(MDRD), IDMS Traceable ([2]; Fabry patient P3, March 2016, QOD): 28
- eGFR(MDRD), IDMS Traceable ([2]; Fabry patient P3, May 2017, Q4D): 21
- eGFR ([2]; Fabry patient P3, May ′17): 21 mL/min/1.73 m^2
- eGFR ([2]; Fabry patient P3, Nov ′17): 15 mL/min/1.73 m^2
- eGFR(MDRD), IDMS Traceable ([2]; Fabry patient P3, November 2017, Q4D): 15
- eGFR(MDRD), IDMS Traceable ([2]; Fabry patient P3, September 2010, QOD): 54
- eGFR(MDRD), IDMS Traceable ([2]; Fabry patient P3, September 2015, QOD): 33
- highest exposure of migalastat in a Fabry patient [3]: 53035 ng·h/mL
- accumulation of plasma migalastat ([4]; multiple ascending dose studies): only minimal accumulation
- Mean Cmax and AUC0-t values versus dose ([4]; oral doses from 75 mg to 1250 mg): increased in a dose-proportional manner
- Mean percent of the dose recovered in urine ([4]; 25 mg): 32.2%
- Mean percent of the dose recovered in urine ([4]; 75 mg): 43.0%
- Mean percent of the dose recovered in urine ([4]; 225 mg): 49.3%
- Mean percent of the dose recovered in urine ([4]; 675 mg): 48.5%
- time to maximum concentrations ([4]; single-dose studies, oral, healthy volunteers and Fabry patients with normal to mildly impaired renal function (range, 1 to 6 hrs)): approximately 3 hours
- route of excretion [5]: primarily excreted unchanged in urine
- AUC0-t, Geometric mean [6, 8]: 14374 ng·h/mL
- AUC0-∞, Geometric mean (CV %) [6, 8]: 14520 (30.8) hr*ng/mL
- C96 h, Mean [6, 8]: BLQ
- Frel [6, 8]: 1.2
- t1/2, Mean [6, 8]: 7.7 h
- tmax, Median (min-max) [6, 8]: 2.5 (1.5-4.0) hr
- AUC0-t, Geometric mean [6, 9]: 22122 ng·h/mL
- AUC0-∞, Geometric mean (CV %) [6, 9]: 22455 (41.2) hr*ng/mL
- Frel [6, 9]: 1.8
- AUC0-t, Geometric mean [6, 10]: 12299 ng·h/mL
- AUC0-∞, Geometric mean (CV %) [6, 10]: 12389 (24.8) hr*ng/mL
- C96 h, Mean [6, 10]: BLQ
- t1/2, Mean [6, 10]: 6.4 h
- tmax, Median (min-max) [6, 10]: 2.5 (1.5-3.0) hr
- AUC0-t, Geometric mean [6, 11]: 53098 ng·h/mL
- AUC0-∞, Geometric mean (CV %) [6, 11]: 56174 (24.2) hr*ng/mL
- Cmax, Geometric mean (CV %) [6, 11]: 2078 (43.3) ng/mL
- Frel [6, 11]: 4.5
- AUC0-∞ ([6]; NCA SD Data, single 150 mg migalastat HCl, Moderate (≥30-≤35) group): 36051 and 40653 and 19723
- AUC0-∞ ([6]; NCA SD Data, single 150 mg migalastat HCl, Severe (<30) group): 83312 and 54470 and 48890 and 62034 and 59538 and 65916 and 36227 and 49905
- concentration at 48 h ([6]; human, plasma, oral, 150 mg, 150 mg dose of migalastat hydrochloride, individuals with normal kidney function, level of quantification, read-out: C48h): < 5 ng/mL
- concentration at 48 h ([6]; human, plasma, oral, 150 mg, AT1001-015, Mild (CLcr ≥60-<90 mL/min), N 8, read-out: C48 h, Mean): 9.34 ng/mL
- concentration at 96 h ([6]; human, plasma, oral, 150 mg, AT1001-015, Moderate (CLcr ≥30-<60 mL/min), N 8): 16.7 ng/mL
- concentration at 48 h ([6]; human, plasma, oral, 150 mg, AT1001-015, Normal (CLcr ≥90 mL/min), N 8, read-out: C48 h, Mean): 5.7 ng/mL
- AUC(0-inf) ([6]; human, plasma, oral, 150 mg, NCA SD Data, single 150 mg migalastat HCl, Geometric Mean of the 11 subjects): 47600 ng·h/mL
- concentration at 96 h ([6]; human, plasma, oral, 150 mg, AT1001-015, Severe (CLcr ≥15-<30 mL/min), N 8): 105 ng/mL
- tmax ([6]; human, plasma, oral, 150 mg, AT1001-015, Severe (CLcr ≥15-<30 mL/min), N 8, read-out: tmax, Median (min-max)): 4 h
- AUC(0-inf) [6, 12]: 14500 ng·h/mL
- AUC(0-t) [6, 12]: 14400 ng·h/mL
- Cmax [6, 12]: 2190 ng/mL
- AUC(0-inf) [6, 13]: 22500 ng·h/mL
- AUC(0-t) [6, 13]: 22100 ng·h/mL
- Cmax [6, 13]: 1870 ng/mL
- AUC(0-inf) [6, 14]: 12400 ng·h/mL
- AUC(0-t) [6, 14]: 12300 ng·h/mL
- Cmax [6, 14]: 2100 ng/mL
- AUC(0-inf) [6, 15]: 56200 ng·h/mL
- AUC(0-t) [6, 15]: 53100 ng·h/mL
- Plasma migalastat C48h levels compared with healthy control subjects ([6]; moderate (predominantly CrCL <50 ml/min) and severe renal impairment): elevated
- Comparison to Example 1 Moderate Impairment (migalastat concentration) ([6]; 3 Hrs Post): 1868
- Comparison to Example 1 Moderate Impairment (migalastat concentration) ([6]; 24 Hrs Post): 239
- Comparison to Example 1 Moderate Impairment (migalastat concentration) ([6]; 48 Hrs Post): 64.5
- Comparison to Example 1 Moderate Impairment (migalastat concentration) ([6]; Pre-dose (0 h), same value as 48 h): 64.5
- Comparison to Example 1 Severe Impairment (migalastat concentration) ([6]; 2 h): 1549 (59.3%)
- Comparison to Example 1 Severe Impairment (migalastat concentration) ([6]; 24 h): 770 (26.5%)
- Comparison to Example 1 Severe Impairment (migalastat concentration) ([6]; 48 h): 334 (38.2%)
- Cmax compared to healthy control subjects ([6]; single oral 150 mg migalastat HCl, across any of the renal impairment groups): not increased
- Incidence of adverse events ([6]; single oral 150 mg migalastat HCl, all renal function groups): comparable across all renal function groups
- mean plasma migalastat AUC0-∞ increase compared to healthy control subjects ([6]; single oral 150 mg migalastat HCl, mild renal impairment): 1.2 fold
- mean plasma migalastat AUC0-∞ increase compared to healthy control subjects ([6]; single oral 150 mg migalastat HCl, moderate renal impairment): 1.8 fold
- CL/F [6, 16]: 10.3 L/h
- t1/2 [6, 16]: 7.66 h
- tmax [6, 16]: 2.50 h
- CL/F [6, 17]: 6.68 L/h
- tmax [6, 17]: 3.00 h
- CL/F [6, 18]: 12.1 L/h
- t1/2 [6, 18]: 6.42 h
- tmax [6, 18]: 2.50 h
- CL/F ([6]; single oral 150 mg migalastat HCl, non-Fabry subjects, renal function group Severe (N = 8)): 2.67 L/h
- tmax compared to healthy control subjects ([6]; single oral 150 mg migalastat HCl, severe group): slightly delayed
- mean plasma migalastat AUC0-∞ increase compared to healthy control subjects ([6]; single oral 150 mg migalastat HCl, severe renal impairment): 4.5 fold

— patent US20220313670A1, “Methods Of Treating Fabry Disease In Patients Having Renal Impairment” (Amicus Therapeutics, Inc., priority 2019, published 2022)
